Measurements published in patent US10151756B2, “Predictive markers for polyamine inhibitor cancer therapies” (ARIZONA BOARD OF REGENTS ON BEHALF OF UNIVERSITY OF ARIZONA, priority 2012, dated 2018).
Entries after “also recorded” stand apart in the source; their conditions may differ.

How the values were obtained:
[1] = test system: colorectal cancer cells (HCT116); experiment: Non-coding RNA microarray of DFMO treated vs untreated cells; assay type: cell-based, human; conditions: 96 h
Method: (§1) HCT116 cells were grown in DMEM media supplemented with 10% fetal bovine serum and cultured at 37° C. For reverse transcription, total RNA was extracted using mirVana RNA isolation kit and reverse transcription performed using Taqman Small RNA Assays with predesigned primer specific to mature let-7 (Applied Biosystems). […] Western blots were conducted using anti-HMGA2 (Cell Signaling), LIN28 (abcam), anti-V5 (Invitrogen), eIF5A1 (Epitomics), and Actin (Sigma). Locked Nucleic Acid (LNA) anti-sense oligos were purchased from Exiqon and directed against seed region of let-7 as described previously (Obad et al., 2011). Pre-designed Silencer Select siRNAs (Invitrogen) were obtained to specifically knockdown eIFSA isoforms. All transfections were conducted using Lipofectamine 2000 as described by manufacturer for up to 48 h. All bars show mean±s.d and statistical analysis was performed by using Student's t-test (*P<0.05; **P<0.01, ***P<0.001).
Non-Coding RNA Microarray.
Samples for miRNA profiling studies were processed by Asuragen Services (Austin, Tex.), according to the company's standard operating procedures. Following incoming sample quality control (QC) assessment, the 3′ ends of RNA molecules in total RNA samples were labeled with biotin according to the company's standard protocol. Labeled RNA (100 ng total RNA per sample) was purified and hybridized to Affymetrix GeneChip® miRNA Arrays (Affymetrix, Santa Clara, Calif.). Hybridization, washing, staining, imaging, and signal extraction were performed according to Affymetrix-recommended procedures. Arrays were scanned on an Affymetrix GeneChip® Scanner 3000 7G.
Signal Processing. The signal processing implemented for the Affymetrix miRChip is a multi-step process involving probe specific signal detection calls, background estimate and correction. For each probe, a global robust multichip average (RMA) background correction is performed with Median Polish summarization. Arrays within a specific analysis experiment are normalized together using Quantile normalization. Detection calls are based on a Wilcoxon rank-sum test of the miRNA probe signal compared to the distribution of signals from GC-content matched anti-genomic probes. The raw gene expression data (.cel files) were converted to expression values using the miRNAQCTool, an open-source package available through Affymetrix. […]. RMA selection was used as a normalization method. Permutation P-values were then calculated for the t-test comparison between the DFMO treated and untreated placebo plates. These P-values were then ranked and a candidate gene list was compiled, using false discovery rate (FDR), adjusted P-value cut-offs obtained by the linear step-up method described by Benjamini and Hochberg (1995).
Next, the mechanism by which polyamines modulate oncogenesis and the effects of polyamine depletion on non-coding RNA levels was investigated by using a non-coding RNA microarray platform containing 15,644 probes, which included 1105 human mature miRNAs. MicroRNAs (miRNAs) are small endogenous RNA species known to modulate cellular signaling predominantly by binding the 3′ untranslated region (UTR) of RNA species. Binding of miRNAs to its cognate target generally results in mRNA destabilization or translational repression (Filipowicz et al., 2008). As a result of the abilities of miRNAs to modulate signaling networks involved in both development and neoplastic diseases, miRNAs serve as attractive targets for disease intervention.

colon cancer cells = experiment: Measurements of intracellular polyamine content (HPLC); assay type: cell-based, human
Text: Measurements of Intracellular Polyamine Content.
Cells were homogenized in 0.2 N HClO4. Acid-soluble and acid insoluble fractions were used to determine intracellular polyamines and protein content, respectively.
It was hypothesized that the polyamines, acting independently or via eIFSA, might affect levels of non-coding RNAs.

HCT116 cells = experiment: Cellular proliferation and viability (Vi-Cell counter, trypan blue exclusion); assay type: cell-based, human
Method: Cellular Proliferation. […] At each time point, cells were trypsinized with 500 μL of trypsin and resuspended with 1.5 mL DMEM supplemented with FBS. One milliliter of the resuspension was then loaded and analyzed using a Beckman-Coulter Vi-Cell Counter. Cellular viability was measured through the trypan blue exclusion assay.

hsa-let-7i = experiment: Real-time quantitative RT-PCR of mature let-7i; assay type: cell-based, human
Method: as §1, with “Locked Nucleic Acid (LNA) anti-sense oligos were purchased from Exiqon and directed against seed region of let-7 as described previously (Obad et al., 2011).” left out, “All transfections were conducted using Lipofectamine 2000 as described by manufacturer for up to 48 h.” left out
RNA Isolation and Real-Time Quantitative RT-PCR.
Total RNA was extracted from cells using the miRVana RNA isolation kit (Ambion) and measured using Thermo Scientific NanoDrop 2000. miRNA levels were measured using an Applied Biosystems 7500 HT PCR instrument with Taqman microRNA assay kits. Controlled reactions were confirmed by excluding reverse transcriptase to confirm amplification from cDNA. Results were analyzed using comparative Ct method between untreated and treated cells. Statistical analysis was performed using two tailed Student's t-tests.

HMGA2 = experiment: Immunoblot of HMGA2 protein in HCT116 cells; assay type: cell-based, human
Method: as §1, with “Locked Nucleic Acid (LNA) anti-sense oligos were purchased from Exiqon and directed against seed region of let-7 as described previously (Obad et al., 2011).” left out, “All transfections were conducted using Lipofectamine 2000 as described by manufacturer for up to 48 h.” left out
(§2) Immunoblot Analysis and Quantification of Western Blot Results.
(§3) Protein concentrations were determined using BCA assay (Pierce). […] Membranes were washed three times for 10 min and subsequently secondary antibodies were incubated with anti-mouse and anti-rabbit horseradish peroxidase conjugated antibodies (Santa Cruz Biotechnologies). Proteins were visualized by chemoluminescence using Amersham Plus ECL reagent (GE Healthcare). Bands were quantified via Western blot analysis by applying ImageJ software analysis. […] Briefly, areas under the curves were assessed for each specific band and comparisons were calculated by setting corresponding control values as 100% and each condition corrected by actin.
(§4) The LNA probes were purchased from Exiqon and synthesized using a phosphorothioate backbone.

LIN28 = experiment: Immunoblot of LIN28 protein in HCT116 cells; assay type: cell-based, human
Method: as §1, with “Locked Nucleic Acid (LNA) anti-sense oligos were purchased from Exiqon and directed against seed region of let-7 as described previously (Obad et al., 2011).” left out, “All transfections were conducted using Lipofectamine 2000 as described by manufacturer for up to 48 h.” left out
as §2, §3, §4

Hmga2 3′ UTR = experiment: Hmga2 3' UTR luciferase reporter assay; assay type: cell-based
Method: Luciferase Reporter Assays.
Hmga2 3′ UTR reporter plasmids were obtained from Addgene (Plasmid 14785) and have been characterized in previous studies (Mayr et al., 2007). A mutated Hmga2 reporter plasmid with disrupted let-7 complementary sites was also obtained (Addgene plasmid 14792). HCT116 cells were transfected in 6-well plates with 1.5 μg firefly luciferase and 1.5 μg Hmga2 Renilla luciferase reporter plasmids. For functional analysis, 25 nM LNA directed against the let-7 family were transfected with appropriate plasmids. Firefly and renilla luciferase were measured 48 h after transfection using a Dual Luciferase Assay (Promega). Results were then normalized to firefly luciferase. Results are mean±SD.

tumor putrescine levels = conditions: rat-tumor model, DFMO infusion; cited from earlier work
[2] = test system: tumors harboring Ki-ras mutations; conditions: AOM-treated rats; reduced from 90%; cited from earlier work
[3] = in vivo; cited from earlier work
prostoglandin E2 (PGE2) = conditions: 300 mg/day, one month; cited from earlier work
[4] = cited from earlier work
[5] = cited from earlier work; remark: listed apart in the source

## NCCCC(N)(C(=O)O)C(F)F (racemic) [DFMO, 2-(difluoromethyl)-dl-ornithine]
[1]; probe U8_st
  Mean Expression Level Treatment, probe U8_st: 8.90
[1]; probe U8_x_st
  Mean Expression Level Treatment, probe U8_x_st: 8.86
[1]; probe U13_st
  Mean Expression Level Treatment, probe U13_st: 9.81
[1]; probe U50B_st
  Mean Expression Level Treatment, probe U50B_st: 10.72
[1]; probe U50B_x_st
  Mean Expression Level Treatment, probe U50B_x_st: 9.86
[1]; probe hsa-let-7i_st
  Mean Expression Level Treatment, probe hsa-let-7i_st: 10.74
[1]; probe hsa-miR-22_st
  Mean Expression Level Treatment, probe hsa-miR-22_st: 10.38
[1]; probe hsa-miR-193b_st
  Mean Expression Level Treatment, probe hsa-miR-193b_st: 8.79
[1]; probe hsa-miR-200a-star_st
  Mean Expression Level Treatment, probe hsa-miR-200a-star_st: 4.89
[1]; probe hsa-miR-221_st
  Mean Expression Level Treatment, probe hsa-miR-221_st: 12.50
[1]; probe hsa-miR-494_st
  Mean Expression Level Treatment, probe hsa-miR-494_st: 12.64
[1]; probe hsa-miR-517a_st
  Mean Expression Level Treatment, probe hsa-miR-517a_st: 1.47
[1]; probe hsa-miR-720_st
  Mean Expression Level Treatment, probe hsa-miR-720_st: 14.63
[1]; probe hsa-miR-886-3p_st
  Mean Expression Level Treatment, probe hsa-miR-886-3p_st: 11.26
Colon cancer cells; colon cancer cells, 96 h of DFMO treatment (FIG. 1A)
  intracellular polyamine pools: depletion of putrescine and spermidine
HCT116 cells; DFMO treatment, trypan blue exclusion
  cellular viability levels: not altered
HCT116 cells; HCT116 cells, 5 mM DFMO (FIG. 1B)
  cellular proliferation: reduce cellular proliferation
hsa-let-7i; HCT116 cells treated with DFMO, maximal at 96 h (FIG. 1C)
  expression of mature let-7i: Increased expression
HMGA2; HCT116 cells, 5 mM DFMO, 72 h (FIG. 2A, 2C)
  HMGA2 protein levels: robust HMGA2 depletion; also recorded: lower HMGA2 levels
LIN28; HCT116 cells, 5 mM DFMO, 72 h (FIG. 2A)
  LIN28 protein levels: lowered levels of LIN28
Hmga2 3′ UTR; DFMO-treated mock cells compared to mock-untreated cells (FIG. 2B)
  HMGA2 luciferase activity: a reduction in HMGA2 luciferase was observed
Tumor putrescine levels
  decrease in tumor putrescine levels: 90%
[2]
  number of tumors harboring Ki-ras mutations: 36%

## Cc1ccc(-c2cc(C(F)(F)F)nn2-c2ccc(S(N)(=O)=O)cc2)cc1 [celecoxib, 4-[5-(4-Methylphenyl)-3-(trifluoromethyl)pyrazol-1-yl]benzenesulfonamide]
[3]
  increase in rates of heart and blood vessel disease: 30%
  risk of gastrointestinal side effects: greater than 80%

## CC(C)Cc1ccc(C(C)C(=O)O)cc1 (stereo not shown) [ibuprofen]
Prostoglandin E2 (PGE2)
  prostoglandin E2 (PGE2) levels in flat mucosa: significant decrease

## CN1C(C(=O)Nc2ccccn2)=C(O)c2ccccc2S1(=O)=O [piroxicam, 4-hydroxy-2-methyl-N-2-pyridyl-2H-1,2-benzothiazine-3-carboxamide 1,1-dioxide]
[2]
  number of tumors harboring Ki-ras mutations: 25%

## NCCCCN [putrescine]
Colon cancer cells; exogenous putrescine supplementation of DFMO-treated cells (FIG. 1A)
  intracellular polyamine levels in DFMO-treated cells: restore intracellular polyamine levels
HCT116 cells; HCT116 cells, 50 μM putrescine with 5 mM DFMO (FIG. 1B)
  cellular proliferation of DFMO-treated cells: proliferation rates similar to control levels
hsa-let-7i; HCT116, putrescine after DFMO administration (FIG. 1D)
  let-7i levels in DFMO treated cells: rescued
hsa-let-7i; HCT116, putrescine alone (FIG. 1D)
  let-7i levels in cultures not treated with drug: no observable effect
LIN28; putrescine supplementation alone (FIG. 2A)
  LIN28 protein levels in non-drug treated cells: did not alter
LIN28; putrescine supplementation in DFMO treated cells (FIG. 2A)
  LIN28 protein levels in DFMO treated cells: LIN28 levels comparable to vehicle control; also recorded: rescued

## CC1=C(CC(=O)O)c2cc(F)ccc2/C1=C\c1ccc([S+](C)[O-])cc1 (stereo not shown) [sulindac, (Z)-5-fluoro-2-methyl-1-((4 (methylsulfinyl)phenyl)methylene) 1H-indene-3-acetic acid]
[4]; administered with food
  time to peak plasma levels, with food: 3 to 4 h
[4]; after oral administration
  fraction of the drug absorbed: about 90%
[4]; fasting patients
  time to peak plasma levels, fasting: about 2 h
[5]; abdominal pain and nausea most frequent
  patients with mild gastrointestinal effects: ~20%
[5]; human, in vivo
  patients with skin rash and pruritus: 5%

## anti-let-7 LNA: locked nucleic acid antisense oligo, phosphorothioate backbone, against let-7 seed region: ACTACCTC (SEQ ID NO: 1) (all phosphorothioate, sugars by position and methylation of C not given here; LNA oligo)
HMGA2; LNA transfected DFMO-treated HCT116 cells (FIG. 2C)
  HMGA2 protein in DFMO-treated cells: rescued
HMGA2; LNA transfected mock-treated HCT116 cells (FIG. 2C, 3C), listed as LNAs targeting let-7
  HMGA2 protein levels, cells without DFMO: increase in HMGA2 protein levels; also recorded: increased
LIN28; 25 nM anti-let-7 LNA, HCT116 cells (FIG. 3C)
  LIN28 expression: little effect
Hmga2 3′ UTR; 25 nM LNA, both DFMO treated and untreated HCT116 cells (FIG. 2B)
  wild-type Hmga2 3′ UTR luciferase activity: enhanced luciferase activity
Hmga2 3′ UTR; 25 nM LNA, irrespective of polyamine levels (FIG. 2B)
  mutated 3′ UTR Hmga2 luciferase activity: no observable effect
